Measured values: patent US20100003542A1, “Coating of artificial surfaces of medical aids and instruments, and cleaning and/or pretreatment of catheters and other medical aids and instruments” (BAYER SCHERING PHARMA AKTIENGESSELSCHAFT, priority 2006, published 2010)

Tested on: intrinsic blood clotting system
Test: Determination of the inhibition of contact activation: activated partial thromboplastin time (aPTT) in platelet-poor plasma
Set-up: species or system human
Conditions: concentration of inhibitor causing twofold prolongation of aPTT; platelet-poor citrate plasma from healthy volunteers; 10 min incubation at 37° C.; PTT reagent (kaolin/cephalin)
Description: The contact activation can be measured by means of a global plasma clotting test, the activated partial thromboplastin time (aPTT), which detects the effect on factors of the intrinsic blood clotting system.
The PTT reagent is a mixture of kaolin suspension, that is “silicates”, which mimic the negatively charged foreign surface, and cephalin, that is phospholipids, which are needed as a surface for the conversion of factor XII into factor XIIa. In the presence of a foreign surface, phospholipid and Ca^2+, factor XII is converted to factor XIIa.
This PTT reagent is added to specially prepared plasma (see examples). The clotting is triggered when the necessary calcium^2+ ions are present, i.e. by addition of a calcium dichloride solution. The time between calcium^2+ addition and the onset of clotting is then measured, and the concentration of inhibitor [in μM] which causes a twofold prolongation of the aPTT is stated.
The contact activation is determined by determination of the partial thromboplastin time. The test principle is as follows: the plasma sample is treated with a mixture of the partial thromboplastin cephalin (phospholipid from rabbit brain) and the surface activator kaolin. The contact activation of the intrinsic clotting system up to fibrin formation is thus set in motion.
For the determination of the partial thromboplastin time, blood from healthy volunteers of both sexes, who had not received any medication affecting clotting within the last ten days, was used. The blood is collected in Monovettes (Sarstedt, Nümbrecht) which contain sodium citrate (1 part citrate+9 parts blood) as anticoagulant. To obtain platelet-poor plasma, the citrate (3.8%) whole blood is centrifuged at 2500 g for 10 min at 4° C. and stored at −20° C. For the determination of the clotting time, aliquots of the platelet-poor plasma (0.1 ml) are incubated with increasing concentrations of test substance or the corresponding solvent for 10 mins at 37° C. Next, the clotting time is determined in accordance with the manufacturer's directions (PTT Reagent®, Roche Diagnostics). For this the procedure is as follows: 0.1 ml of PTT reagent is pipetted into the plasma, and the sample incubated for three minutes at 37° C. The clotting is then triggered in a coagulometer by addition of 0.1 ml of calcium chloride solution and the time to onset of clotting is measured. In this manner, the 2-fold prolongation of the aPTT is determined for selected compounds.

SMILES: O=C(NCC1CN(c2ccc(N3CCCC3=O)c(C(F)(F)F)c2)C(=O)O1)c1ccc(Cl)s1 (centres unmarked) [Example 112]
- Twofold prolongation of the aPTT: 1.6 µM

SMILES: Cc1cc(N2CC(CNC(=O)c3ccc(Cl)s3)OC2=O)ccc1N1CCOCC1=O (centres unmarked) [Example 115]
- Twofold prolongation of the aPTT: 1.34 µM

SMILES: O=C(NC[C@H]1CN(c2ccc(N3CCCC3=O)cc2)C(=O)O1)c1ccc(Cl)s1 [Example 17]
- Twofold prolongation of the aPTT: 1.8 µM

SMILES: O=C(NCC1CN(c2ccc(N3CCOCC3=O)c(F)c2)C(=O)O1)c1ccc(Cl)s1 (centres unmarked) [Example 95]
- Twofold prolongation of the aPTT: 0.51 µM

SMILES: O=C(NC[C@H]1CN(c2ccc(N3CCOCC3=O)cc2)C(=O)O1)c1ccc(Cl)s1 [Example 44, 5-chloro-N-({(5S)-2-oxo-3-[4-(3-oxo-4-morpholinyl)phenyl]-1,3-oxazolidin-5-yl}methyl)-2-thiophencarboxamide]
- Twofold prolongation of the aPTT: 0.69 µM

SMILES: Nc1cc(N2CC(CNC(=O)c3ccc(Cl)s3)OC2=O)ccc1N1CCOCC1=O (centres unmarked) [Example 123]
- Twofold prolongation of the aPTT: 1.22 µM

SMILES: O=C(NC[C@H]1CN(c2ccc(N3CCCCC3=O)cc2)C(=O)O1)c1ccc(Cl)s1 [Example 162]
- Twofold prolongation of the aPTT: 2.5 µM

SMILES: O=C(NC[C@H]1CN(c2ccc(N3CCCC3=O)cc2)C(=O)O1)c1ccc(Br)s1 [Example 56]
- Twofold prolongation of the aPTT: 4.3 µM

SMILES: O=C(NCC1CN(c2ccc(N3CCOCC3=O)c(C(F)(F)F)c2)C(=O)O1)c1ccc(Cl)s1 (centres unmarked) [Example 114]
- Twofold prolongation of the aPTT: 2.2 µM

SMILES: O=C(NC[C@H]1CN(c2ccc(N3CCOCC3=O)c(F)c2)C(=O)O1)c1ccc(Cl)s1 [Example 130a]
- Twofold prolongation of the aPTT: 0.4 µM

SMILES: O=C(NCC1CN(c2ccc(N3CCOCC3=O)c(Cl)c2)C(=O)O1)c1ccc(Cl)s1 (centres unmarked) [Example 113]
- Twofold prolongation of the aPTT: 0.55 µM
